Laboratory results reported in PubChem BioAssay AID192 (DTP/NCI, 2004).
Several values for one entry are separate records, joined by “and”; a condition that tells them apart may be missing. Equal values may be shown once. Toxic doses and inconclusive results are not listed. Numbered stars: 1 amine (or outer) side, 2 acyl side, 3 side chain; on linkers, the order of the positions; unused ones are H or OH. Bridge positions count the residues as written; N and C are the ends. Square brackets hold non-standard residues; d marks the D form. Peptide text beside a SMILES is read from it. I, II: the chains in the order shown. Actinocin(9to1) = Cc1c2oc3c(C)ccc(C(=O)[*:1])c3nc-2c(C(=O)[*:2])c(N)c1=O; aThr = C[C@H](O)[C@H](N)C(=O)O; NMeV = CN[C@H](C(=O)O)C(C)C; Sar = CNCC(=O)O

System: BDF1 mice, B16 melanoma ip, median survival T/C
Assay: NCI In Vivo Anticancer Drug Screen. Data for tumor model B16 Melanoma (intraperitoneal) in B6D2F1 (BDF1) mice
Conditions: endpoint: median survival time, higher = longer survival
How it was run: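 Survival or tumor size is measured after treatment of tumor-bearing mice and normalised to the vehicle-treated control group.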

[1] = dose: 100.0 mg/kg/injection, schedule: Q01DX009 (ip), vehicle: saline with Tween-80
[2] = dose: 50.0 mg/kg/injection, schedule: Q01DX009 (ip), vehicle: Klucel (hydroxypropylcellulose) (HPC)

For Cc1c2oc3c(C)ccc(C(=O)N[C@@H]4C(=O)N[C@H](C(C)C)C(=O)N5CCC[C@H]5C(=O)N(C)CC(=O)N(C)[C@@H](C(C)C)C(=O)O[C@H]4C)c3nc-2c(C(=O)N[C@@H]2C(=O)N[C@H](C(C)C)C(=O)N3CCC[C@H]3C(=O)N(C)CC(=O)N(C)[C@@H](C(C)C)C(=O)O[C@H]2C)c(N)c1=O (I: [aThr][dV]P[Sar][NMeV] / II: [aThr][dV]P[Sar][NMeV]; ester I:1-I:C, II:1-II:C; linker I:N-II:N via Actinocin(9to1)), the T/C (dose: 0.03 mg/kg/injection, schedule: Q01DX009 (ip), vehicle: water) was 157 % of control, the T/C (dose: 0.05 mg/kg/injection, schedule: Q01DX009 (ip), vehicle: water) was 186 % of control and the T/C (dose: 0.05 mg/kg/injection, schedule: Q04DX003 (ip), vehicle: saline) was 123 % of control and 124 % of control. The T/C (dose: 0.08 mg/kg/injection, schedule: Q01DX009 (ip), vehicle: saline) was 169 % of control, the T/C (dose: 0.13 mg/kg/injection, schedule: Q01DX009 (ip), vehicle: saline) was 44 % of control and the T/C (dose: 0.2 mg/kg/injection, schedule: Q04DX003 (ip), vehicle: saline) was 164 % of control. For the same compound, the T/C (dose: 0.22 mg/kg/injection, schedule: Q01DX009 (ip), vehicle: saline) was 42 % of control, the T/C (dose: 0.4 mg/kg/injection, schedule: Q04DX003 (ip), vehicle: saline) was 65 % of control and 69 % of control and the T/C (dose: 0.5 micrograms/kg/injection, schedule: Q01DX009 (ip), vehicle: saline) was 119 % of control. The T/C (dose: 2.0 micrograms/kg/injection, schedule: Q01DX009 (ip), vehicle: saline) was 116 % of control, the T/C (dose: 4.0 micrograms/kg/injection, schedule: Q01DX009 (ip), vehicle: saline) was 150 % of control and the T/C (dose: 6.25 micrograms/kg/injection, schedule: Q01DX009 (ip), vehicle: saline) was 101 % of control. The T/C (dose: 6.3 micrograms/kg/injection, schedule: Q01DX009 (ip), vehicle: saline) was 96 % of control, the T/C (dose: 6.5 micrograms/kg/injection, schedule: Q01DX009 (ip), vehicle: saline) was 120 % of control and the T/C (dose: 10.8 micrograms/kg/injection, schedule: Q01DX009 (ip), vehicle: saline) was 112 % of control. The T/C (dose: 12.5 micrograms/kg/injection, schedule: Q01DX009 (ip), vehicle: water) was 120 % of control, the T/C (dose: 16.0 micrograms/kg/injection, schedule: Q01DX009 (ip), vehicle: saline) was 157 % of control and the T/C (dose: 16.0 micrograms/kg/injection, schedule: Q01DX017 (ip), vehicle: saline) was 185 % of control. The T/C (dose: 21.6 micrograms/kg/injection, schedule: Q01DX009 (ip), vehicle: saline + alcohol) was 123 % of control, the T/C (dose: 25.0 micrograms/kg/injection, schedule: Q01DX009 (ip), vehicle: saline + alcohol) was 120 % of control and the T/C (dose: 32.0 micrograms/kg/injection, schedule: Q01DX005 (ip), vehicle: saline) was 120 % of control. For the same compound, the T/C (dose: 32.0 micrograms/kg/injection, schedule: Q01DX009 (ip), vehicle: saline) was 155 % of control, the T/C (dose: 32.0 micrograms/kg/injection, schedule: Q01DX017 (ip), vehicle: saline) was 200 % of control and the T/C (dose: 36.0 micrograms/kg/injection, schedule: Q01DX009 (ip), vehicle: saline + alcohol) was 152 % of control. The T/C (dose: 37.5 micrograms/kg/injection, schedule: Q01DX009 (ip), vehicle: saline + alcohol) was 153 % of control, the T/C (dose: 37.5 micrograms/kg/injection, schedule: Q01DX009 (ip), vehicle: saline) was 159 % of control and the T/C (dose: 37.5 micrograms/kg/injection, schedule: Q04DX003 (ip), vehicle: saline) was 118 % of control. The T/C (dose: 38.9 micrograms/kg/injection, schedule: Q04DX003 (ip), vehicle: saline + alcohol) was 123 % of control, the T/C (dose: 50.0 micrograms/kg/injection, schedule: Q01DX009 (ip), vehicle: saline + alcohol) was 158 % of control and the T/C (dose: 50.0 micrograms/kg/injection, schedule: Q01DX009 (ip), vehicle: water) was 152 % of control and 166 % of control. The T/C (dose: 60.0 micrograms/kg/injection, schedule: Q01DX009 (ip), vehicle: saline + alcohol) was 152 % of control and 161 % of control, the T/C (dose: 64.0 micrograms/kg/injection, schedule: Q01DX005 (ip), vehicle: saline) was 152 % of control and the T/C (dose: 64.8 micrograms/kg/injection, schedule: Q04DX003 (ip), vehicle: saline + alcohol) was 154 % of control. For the same compound, the T/C (dose: 75.0 micrograms/kg/injection, schedule: Q01DX009 (ip), vehicle: saline) was 186 % of control, the T/C (dose: 75.0 micrograms/kg/injection, schedule: Q04DX003 (ip), vehicle: water) was 123 % of control and the T/C (dose: 83.0 micrograms/kg/injection, schedule: Q01DX009 (ip), vehicle: saline) was 175 % of control. For the same compound, the T/C (dose: 100.0 micrograms/kg/injection, schedule: Q01DX009 (ip), vehicle: saline + alcohol) was 169 % of control, the T/C (dose: 100.0 micrograms/kg/injection, schedule: Q01DX009 (ip), vehicle: water) was 175 % of control and the T/C (dose: 108.0 micrograms/kg/injection, schedule: Q04DX003 (ip), vehicle: saline + alcohol) was 150 % of control and 159 % of control and 160 % of control. For the same compound, the T/C (dose: 128.0 micrograms/kg/injection, schedule: Q01DX005 (ip), vehicle: saline) was 165 % of control, the T/C (dose: 128.0 micrograms/kg/injection, schedule: Q04DX003 (ip), vehicle: saline) was 150 % of control and the T/C (dose: 180.0 micrograms/kg/injection, schedule: Q04DX003 (ip), vehicle: saline + alcohol) was 164 % of control and 172 % of control and 176 % of control. The T/C (dose: 225.0 micrograms/kg/injection, schedule: Q04DX003 (ip), vehicle: saline + alcohol) was 91 % of control, the T/C (dose: 225.0 micrograms/kg/injection, schedule: Q04DX003 (ip), vehicle: saline) was 159 % of control and the T/C (dose: 256.0 micrograms/kg/injection, schedule: Q04DX003 (ip), vehicle: saline) was 165 % of control. The T/C (dose: 300.0 micrograms/kg/injection, schedule: Q04DX003 (ip), vehicle: saline) was 168 % of control and 169 % of control, the T/C (dose: 300.0 micrograms/kg/injection, schedule: Q04DX003 (ip), vehicle: water) was 106 % of control and the T/C (dose: 500.0 micrograms/kg/injection, schedule: Q04DX003 (ip), vehicle: saline + alcohol) was 101 % of control. The T/C (dose: 512.0 micrograms/kg/injection, schedule: Q01DX001 (ip), vehicle: saline) was 92 % of control and the T/C (dose: 600.0 micrograms/kg/injection, schedule: Q04DX003 (ip), vehicle: saline) was 231 % of control.

In the case of CN1C(=O)C(=Cc2ccc(O)cc2)C(=O)N(C)C1=O, the T/C (dose: 12.5 mg/kg/injection, schedule: Q01DX009 (ip), vehicle: saline with Tween-80) was 101 % of control and the T/C (dose: 25.0 mg/kg/injection, schedule: Q01DX009 (ip), vehicle: saline with Tween-80) was 97 % of control.

CC(=O)Nc1ccc([N+](=O)[O-])cc1 was tested, and the T/C (dose: 12.5 mg/kg/injection, schedule: Q01DX009 (ip), vehicle: alcohol) was 95 % of control, the T/C (dose: 25.0 mg/kg/injection, schedule: Q01DX009 (ip), vehicle: alcohol) was 102 % of control and the T/C (dose: 50.0 mg/kg/injection, schedule: Q01DX009 (ip), vehicle: alcohol) was 93 % of control. For the same compound, the T/C [1] was 88 % of control.

In the case of Nc1ccccc1SC1CC(=O)N(c2ccc(Br)cc2Cl)C1=O (stereo not drawn), the T/C [2] was 94 % of control.

CC(C)(C)OC(=O)NC(COCc1ccccc1)C(=O)O (stereo not drawn) was tested, and the T/C (dose: 50.0 mg/kg/injection, schedule: Q01DX009 (ip), vehicle: saline with Tween-80) was 90 % of control and the T/C [1] was 90 % of control.

With Nc1ccn(C2OC(COP(=O)(O)O)C(O)C2O)c(=O)n1 (stereo not drawn) the T/C (dose: 16.0 mg/kg/injection, schedule: Q01DX009 (ip), vehicle: saline with Tween-80) was 105 % of control, the T/C (dose: 32.0 mg/kg/injection, schedule: Q01DX009 (ip), vehicle: saline with Tween-80) was 105 % of control and the T/C (dose: 64.0 mg/kg/injection, schedule: Q01DX009 (ip), vehicle: saline with Tween-80) was 115 % of control. The T/C (dose: 128.0 mg/kg/injection, schedule: Q01DX009 (ip), vehicle: saline with Tween-80) was 122 % of control.

In the case of CCOc1cc(C2=NNc3n[nH]c(=S)n3N2)ccc1O, the T/C (dose: 25.0 mg/kg/injection, schedule: Q01DX009 (ip), vehicle: Klucel (hydroxypropylcellulose) (HPC)) was 96 % of control, the T/C (dose: 25.0 mg/kg/injection, schedule: Q04DX003 (ip), vehicle: Klucel (hydroxypropylcellulose) (HPC)) was 97 % of control and the T/C [2] was 100 % of control. The T/C (dose: 50.0 mg/kg/injection, schedule: Q04DX003 (ip), vehicle: Klucel (hydroxypropylcellulose) (HPC)) was 102 % of control and the T/C (dose: 100.0 mg/kg/injection, schedule: Q04DX003 (ip), vehicle: Klucel (hydroxypropylcellulose) (HPC)) was 122 % of control.
